Series [1] addresses JAK2 (Homo sapiens, UniProt O60674). As to the kind of experiment: biochemical.
Series [2] deals with AD2. The series is classed as cell-based, human.
Series [3] has as its target 5HT2A (Homo sapiens, UniProt P28223). The series is described as follows: cell-based.
The target of series [4] is V1a (Homo sapiens, UniProt P37288). The series is described as follows: cell-based.
In series [5] the target is M1 (Homo sapiens, UniProt P11229). As to the kind of experiment: cell-based.
Series [6] deals with Influenza virus A/WSN/33 (H1N1). As to the kind of experiment: microbe, parasite or virus in culture. The series is classed as cell-based. Conditions: MDCK, read-out: EC50 (mean ± SD).
The test system of series [7] is A/Anhui/01/2013 (H7N9). The series is described as follows: microbe, parasite or virus in culture. Conditions: Influenza A virus, H7N9, MDCK, read-out: IC50 (mean ± SD). Format: cell-based, avian influenza virus.
Series [8] concerns influenza A virus WSN/33 (H1N1). Set-up: species or system BALB/c mice. Conditions: mouse, in vivo.
Series [9] can be described thus: in vitro. Conditions: dog, CC50 (mean ± SD).
The target in series [10] is EPHA2 (Homo sapiens, UniProt P29317). As to the kind of experiment: biochemical.
The target in series [11] is MST4 (Homo sapiens, UniProt Q9P289). The series is described as follows: biochemical.

The structures appear in SMILES notation. “And” between values parts separate entries of the source, which are not always exact repeats. Identical values can stand only once. Like-named read-outs stand apart in the source and are kept apart here.

5HT2A, sequence (P28223 whole entry): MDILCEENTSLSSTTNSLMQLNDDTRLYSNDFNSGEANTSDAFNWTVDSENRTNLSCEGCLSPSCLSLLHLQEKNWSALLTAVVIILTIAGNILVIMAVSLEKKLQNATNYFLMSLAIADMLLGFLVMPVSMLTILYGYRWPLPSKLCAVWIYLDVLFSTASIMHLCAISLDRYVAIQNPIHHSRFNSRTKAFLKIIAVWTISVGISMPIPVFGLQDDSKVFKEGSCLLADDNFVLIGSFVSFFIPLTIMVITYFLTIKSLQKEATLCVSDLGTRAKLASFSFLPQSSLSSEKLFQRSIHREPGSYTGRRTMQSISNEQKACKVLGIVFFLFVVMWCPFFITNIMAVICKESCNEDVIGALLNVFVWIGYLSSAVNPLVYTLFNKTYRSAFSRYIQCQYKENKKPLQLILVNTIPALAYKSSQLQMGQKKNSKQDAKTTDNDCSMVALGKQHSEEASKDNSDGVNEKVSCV
M1, sequence (P11229 whole entry): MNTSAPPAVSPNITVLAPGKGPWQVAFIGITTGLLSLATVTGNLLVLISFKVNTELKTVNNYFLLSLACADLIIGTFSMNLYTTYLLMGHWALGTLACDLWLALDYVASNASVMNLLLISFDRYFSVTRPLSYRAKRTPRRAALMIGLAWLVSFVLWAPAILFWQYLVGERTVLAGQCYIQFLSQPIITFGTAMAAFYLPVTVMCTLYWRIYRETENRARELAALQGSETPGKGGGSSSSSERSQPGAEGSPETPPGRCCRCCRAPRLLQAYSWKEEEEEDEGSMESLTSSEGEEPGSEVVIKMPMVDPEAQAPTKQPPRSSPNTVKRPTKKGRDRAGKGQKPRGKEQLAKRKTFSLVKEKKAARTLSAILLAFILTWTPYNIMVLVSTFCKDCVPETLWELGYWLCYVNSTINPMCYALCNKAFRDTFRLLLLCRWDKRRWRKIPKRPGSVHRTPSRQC
V1a, sequence (P37288 whole entry): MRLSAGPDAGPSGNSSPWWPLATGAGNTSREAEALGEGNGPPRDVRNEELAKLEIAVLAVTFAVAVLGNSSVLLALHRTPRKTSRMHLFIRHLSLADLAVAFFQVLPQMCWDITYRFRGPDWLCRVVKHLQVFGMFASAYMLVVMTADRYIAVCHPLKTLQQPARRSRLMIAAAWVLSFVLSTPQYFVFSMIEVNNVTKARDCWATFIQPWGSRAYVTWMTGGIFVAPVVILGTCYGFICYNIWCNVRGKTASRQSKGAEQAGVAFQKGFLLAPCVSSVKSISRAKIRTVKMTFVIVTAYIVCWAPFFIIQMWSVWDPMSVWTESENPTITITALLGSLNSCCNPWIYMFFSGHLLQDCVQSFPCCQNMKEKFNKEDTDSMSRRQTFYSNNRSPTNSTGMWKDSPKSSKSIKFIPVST
EPHA2, sequence (P29317 24-976): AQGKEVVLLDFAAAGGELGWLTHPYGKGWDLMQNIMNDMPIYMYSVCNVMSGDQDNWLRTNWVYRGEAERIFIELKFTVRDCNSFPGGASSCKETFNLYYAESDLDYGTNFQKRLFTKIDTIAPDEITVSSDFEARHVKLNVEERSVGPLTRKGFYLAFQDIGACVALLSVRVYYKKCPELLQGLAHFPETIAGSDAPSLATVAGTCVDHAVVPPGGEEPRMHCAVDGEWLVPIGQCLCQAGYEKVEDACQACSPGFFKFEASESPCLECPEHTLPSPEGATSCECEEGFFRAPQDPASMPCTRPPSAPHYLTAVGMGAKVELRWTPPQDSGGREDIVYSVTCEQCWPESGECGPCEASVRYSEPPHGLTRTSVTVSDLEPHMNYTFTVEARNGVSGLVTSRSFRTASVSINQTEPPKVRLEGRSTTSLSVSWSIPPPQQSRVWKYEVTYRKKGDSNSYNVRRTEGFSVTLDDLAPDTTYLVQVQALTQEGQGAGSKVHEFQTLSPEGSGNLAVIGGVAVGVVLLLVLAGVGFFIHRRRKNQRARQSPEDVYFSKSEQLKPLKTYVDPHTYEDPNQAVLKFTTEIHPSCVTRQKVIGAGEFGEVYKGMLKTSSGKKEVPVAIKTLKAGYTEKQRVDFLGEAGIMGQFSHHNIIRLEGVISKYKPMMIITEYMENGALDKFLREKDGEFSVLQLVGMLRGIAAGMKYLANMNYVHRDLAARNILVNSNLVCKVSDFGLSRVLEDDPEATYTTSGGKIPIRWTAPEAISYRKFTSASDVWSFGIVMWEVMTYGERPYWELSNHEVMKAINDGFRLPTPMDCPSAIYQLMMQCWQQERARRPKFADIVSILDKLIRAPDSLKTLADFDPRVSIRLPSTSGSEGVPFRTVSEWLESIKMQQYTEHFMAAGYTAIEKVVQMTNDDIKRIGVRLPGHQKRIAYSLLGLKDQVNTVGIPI
JAK2, sequence (O60674 whole entry): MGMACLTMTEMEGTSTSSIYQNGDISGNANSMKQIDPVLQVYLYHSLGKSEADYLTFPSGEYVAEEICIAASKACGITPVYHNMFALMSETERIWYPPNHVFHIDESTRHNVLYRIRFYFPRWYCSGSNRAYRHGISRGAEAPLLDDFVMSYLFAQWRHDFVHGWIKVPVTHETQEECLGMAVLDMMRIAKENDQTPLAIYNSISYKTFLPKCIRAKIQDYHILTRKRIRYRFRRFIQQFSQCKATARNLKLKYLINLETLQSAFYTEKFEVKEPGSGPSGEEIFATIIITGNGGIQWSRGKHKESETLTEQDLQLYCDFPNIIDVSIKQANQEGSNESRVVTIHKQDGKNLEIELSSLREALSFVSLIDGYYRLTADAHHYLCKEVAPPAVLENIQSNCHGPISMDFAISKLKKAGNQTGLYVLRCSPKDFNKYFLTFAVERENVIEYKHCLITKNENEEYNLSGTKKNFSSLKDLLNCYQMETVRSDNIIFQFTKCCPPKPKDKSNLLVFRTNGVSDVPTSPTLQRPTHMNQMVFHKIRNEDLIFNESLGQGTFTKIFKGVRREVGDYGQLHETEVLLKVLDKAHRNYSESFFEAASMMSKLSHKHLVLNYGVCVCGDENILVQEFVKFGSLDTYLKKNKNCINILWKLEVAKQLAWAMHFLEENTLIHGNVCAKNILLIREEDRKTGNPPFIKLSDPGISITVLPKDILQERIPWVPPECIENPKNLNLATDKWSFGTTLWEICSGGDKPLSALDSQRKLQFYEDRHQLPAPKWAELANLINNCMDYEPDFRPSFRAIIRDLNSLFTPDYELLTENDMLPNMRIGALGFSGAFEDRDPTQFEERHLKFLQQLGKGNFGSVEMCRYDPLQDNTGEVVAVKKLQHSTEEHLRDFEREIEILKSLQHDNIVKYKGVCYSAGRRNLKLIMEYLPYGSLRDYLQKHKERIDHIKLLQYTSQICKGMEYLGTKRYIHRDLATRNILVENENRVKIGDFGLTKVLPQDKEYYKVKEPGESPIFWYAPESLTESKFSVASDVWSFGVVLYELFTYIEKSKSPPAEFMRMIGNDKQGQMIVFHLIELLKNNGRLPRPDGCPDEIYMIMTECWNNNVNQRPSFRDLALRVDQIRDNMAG
MST4, sequence (Q9P289 whole entry): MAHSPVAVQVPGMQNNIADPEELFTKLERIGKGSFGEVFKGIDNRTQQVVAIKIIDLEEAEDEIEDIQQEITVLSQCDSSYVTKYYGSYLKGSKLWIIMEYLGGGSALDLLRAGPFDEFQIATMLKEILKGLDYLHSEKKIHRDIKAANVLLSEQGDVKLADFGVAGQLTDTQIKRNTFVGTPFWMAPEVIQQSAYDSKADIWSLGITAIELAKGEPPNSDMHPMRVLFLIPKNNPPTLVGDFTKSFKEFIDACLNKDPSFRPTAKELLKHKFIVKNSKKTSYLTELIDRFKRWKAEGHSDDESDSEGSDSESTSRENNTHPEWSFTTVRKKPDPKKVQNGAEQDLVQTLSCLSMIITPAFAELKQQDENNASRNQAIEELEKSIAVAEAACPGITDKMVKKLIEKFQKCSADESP

As for `O=C(O)[C@H]1C2CCC(CC2)[C@@H]1Nc1nc(-c2n[nH]c3ncc(F)cc23)nc(C2CC2)c1F` [ZSP1273], the IC50 – broadly, the concentration that inhibits the measured activity by half – in series [1] is over 10 µM; in [5], over 10 µM; in series [7] it was 0.000627 ± 0.000312 µM; in series [10] it was over 10 µM; in series [11], over 10 µM. The EC50 – broadly, the concentration at which the effect is half-maximal – in [2] is over 12 µM; in series [3], over 12 µM; in series [4] it was over 12 µM; in series [6], 0.063 ± 0.028 nM. Besides, the “Activity at Maximum Concentration (%)” value in series [2] (12,000 nM) was 3.38%; in [3] (12,000 nM), −21.27%; in series [4] (12,000 nM) it was 6.27%. Besides, the inhibition at 10 µM in [5] (10,000 nM, read-out: Inhibition at Maximum Concentration (%)) is -0.95%. The “day on which mice began to regain body weight” value in series [8] was 4 days and 5 days. The “decrease of viral load in lung tissues vs vehicle” value in series [8] (3 mg/kg) is 2.37 log10; in [8] (10 mg/kg), 3.1 log10 and 4.18 log10; in series [8] (30 mg/kg), 4.97 log10. Further, in series [8] (30 mg/kg), the “viral titer in lung tissues” value is reported as under 2.0 log10. In addition, the CC50 in [9] was found to be 1.63 ± 0.87 µM.

(Values after paper PMC10056986 (Pharmaceuticals, 2023).)
